The results in this text go back to publication PMC9867442, “Indole Derivatives Bearing Imidazole, Benzothiazole-2-Thione or Benzoxazole-2-Thione Moieties—Synthesis, Structure and Evaluation of Their Cytoprotective, Antioxidant, Antibacterial and Fungicidal Activities” (Molecules, 2023).

In data set [1] the test system is human red blood cells (RBC). Kind of data set: Hemolysis assay under the compounds tested. In kind it is cell-based. The following applies: 0.1 mg/mL, 60 min, 37 °C, PBS pH 7.4. As to the method:
The erythrocytes were washed three times (3000 rpm, 10 min, +4 °C) in 7.4 pH phosphate buffered saline (PBS: 137 mM NaCl, 2.7 mM KCl, 10 mM Na2HPO4, 1.76 mM KH2PO4) supplemented with 10 mM glucose. After washing, RBC were suspended in the PBS buffer at 1.65 × 10^9 cells/mL, stored at +4 °C, and used within 5 h.
The cytotoxic activity of the compounds tested was determined by a standard hemolytic assay according to Mrówczyńska and Hägerstrand [57]. Briefly, RBC (1.65 × 10^8 cells/mL, ~1.5% hematocrit) were incubated in PBS buffer (7.4 pH) supplemented with 10 mM glucose and containing compounds tested (0.1 mg/mL) for 60 min at 37 °C in a shaking water bath. Samples with RBC incubated in PBS without compounds tested were taken as the control. Each sample was repeated three times, and the experiments were repeated 3 times with RBC from different donors. After incubation, the RBC suspensions were centrifuged (3000 rpm, 10 min), and the degree of hemolysis was estimated by measuring the absorbance (Ab) of the supernatant at 540 nm. The results were expressed as a percentage (%) of hemolysis which was determined using the following equation:Hemolysis (%) = (sample Ab/positive control Ab) × 100% were positive control is Ab of supernatant of RBC in ice-cold H2O.

Data set [2] has as its system Gloeophyllum trabeum (Gt). Briefly: Antifungal agar-plate method. In kind it is cell-based. The following applies: Gloeophyllum trabeum, read-out: Antifungal activity (inhibition of mycelial growth); for inhibition of growth at 0.0001 %: concentration 0.0001%; for inhibition of growth at 0.001 %: concentration 0.001%; for inhibition of growth at 0.01 %: concentration 0.01%; for inhibition of growth at 0.1 %: concentration 0.1%. As to the method: (§1) Fungal strains: Coriolus versicolor (Cv), Poria placenta (Pp), Coniophora puteana (Cp) and Gloeophyllum trabeum (Gt) were used as a test organism for the experimental determination of the antifungal activity of 1–11. The fungus were obtained from the collection of the Department of Wood Chemical Technology, Faculty of Forestry and Wood Technology, Poznań, University of Life Sciences, Poland. The fungal growth rates were measured in 90 mm-diameter plastic dishes using the agar-plate method, described by Ważny and Thorton. Five concentrations of gramine and its derivatives in the range of 0.1% to 0.00001% were studied. The compound was applied on the agar (2% agar and 5% malt-extract) prepared on the Petri dish and previously autoclaved. The combination of the compound and fungus was repeated three times. Given sample was centrally inoculated with a 5 mm diameter disc taken from the submargin of 5-day-old malt agar plates. The plates were incubated in darkness at 21 ± 2 °C and 70 ± 5% relative air humidity. The growth duration was determined by the total coverage of the reference plate. The radius of the area covered by the fungus compared with the reference agar plate was employed to calculate the effective doses, ED50, of preservative concentrations retarding the fungal growth rate by 50%.

Data set [3] has as its system Coriolus versicolor (Cv). Briefly: Antifungal agar-plate method. The following applies: Trametes versicolor, read-out: Antifungal activity (inhibition of mycelial growth); for inhibition of growth at 0.0001 %: concentration 0.0001%; for inhibition of growth at 0.001 %: concentration 0.001%; for inhibition of growth at 0.01 %: concentration 0.01%; for inhibition of growth at 0.1 %: concentration 0.1%. The format is cell-based. As to the method: as §1

Data set [4] has as its system Coniophora puteana (Cp). Kind of data set: Antifungal agar-plate method. The following applies: Coniophora puteana, read-out: Antifungal activity (inhibition of mycelial growth); for inhibition of growth at 0.0001 %: concentration 0.0001%; for inhibition of growth at 0.001 %: concentration 0.001%; for inhibition of growth at 0.01 %: concentration 0.01%; for inhibition of growth at 0.1 %: concentration 0.1%. In kind it is cell-based. As to the method:
as §1

For data set [5], the system named is Poria placenta (Pp). Kind of data set: Antifungal agar-plate method. The format is cell-based. The following applies: read-out: Antifungal activity (inhibition of mycelial growth); for inhibition of growth at 0.0001 %: concentration 0.0001%; for inhibition of growth at 0.001 %: concentration 0.001%; for inhibition of growth at 0.01 %: concentration 0.01%; for inhibition of growth at 0.1 %: concentration 0.1%. As for the experimental part: as §1

Data set [6] deals with Micrococcus luteus. Briefly: Antibacterial well-diffusion method. The format is cell-based. The following applies: Micrococus luteus, 0.1 mL of compound in DMSO, 48 h, 27 °C. As to the method:
(§2) The antimicrobial properties of compounds were determined against selected bacteria: Micrococcus luteus, Bacillus subtilis, Escherichia coli and Pseudomonas fluorescens which came from the collection of Pure Cultures of the Facility of Microbiology of the Department of Soil Science and Microbiology of the Poznan University of Life Sciences. The well-diffusion method was used to evaluate the antimicrobial properties of compounds. 6 mL each of liquidized broth medium was poured into sterile Petri dishes and allowed to solidify. After which, two sterile glass rings with a diameter of 0.5 cm were placed on the surface of each plate. Then 20 mL each of liquid broth medium containing suspensions of the tested bacterial strains at a density of 10^7 cells/cm3, obtained from 48-h cultures on broth […], was introduced. After the medium solidified, the glass rings were removed with a pencil, obtaining two wells on each plate. 0.1 mL of compound dissolved in pure dimethyl sulphoxide was introduced into one well, and 0.1 mL of pure dimethyl sulphoxide was introduced into the other well, which was as a control. Each compound was tested in four replicates. The plates were incubated for 48 h in a thermostat at 27 °C for M. luteus, B. subtilis and P. fluorescens cultures, and the E. coli culture at 37 °C. At the end of the incubation, the diameters of growth inhibition of the tested strains were measured using calipers.

Data set [7] relates to Pseudomonas fluorescens. Kind of data set: Antibacterial well-diffusion method. In kind it is cell-based. The following applies: 0.1 mL of compound in DMSO, 48 h, 27 °C. As for the experimental part:
as §2

The subject of data set [8] is Bacillus subtilis. Briefly: Antibacterial well-diffusion method. The following applies: 0.1 mL of compound in DMSO, 48 h, 27 °C. The format is cell-based. As to the method: as §2
Data set [9] concerns Escherichia coli. Briefly: Antibacterial well-diffusion method. In kind it is cell-based. The following applies: 0.1 mL of compound in DMSO, 48 h, 37 °C. As to the method:
as §2

Data set [10] can be described thus: Ferrous ions (Fe2+) chelating activity (ferrozine). The following applies: 0.1 mg/mL, 10 min, room temperature. As for the experimental part: Ferrous ions (Fe^2+) chelating activity was evaluated by inhibition of the formation of Fe^2+-ferrozine complex after incubation of the compounds tested with Fe^2+. The Fe^2+-chelating ability of compounds tested was determined by the absorbance of the ferrous ion-ferrozine complex at 562 nm. In brief, 0.1 mg/mL concentration of the compounds tested in 0.2 mL ethyl alcohol were added to a solution of 0.6 mM FeCl2 (0.05 mL). EDTA (ethylenediaminetetraacetic acid) was used as the standard EDTA chelating agent. The reaction was started by the addition of 5 mM ferrozine (0.05 mL) in ethyl alcohol and shaken vigorously immediately. The samples were stored for 10 min at room temperature (~22 °C). Following incubation, the absorbance (Abs) of the solutions was measured at 562 nm in a spectrophotometer. The percentage of inhibition of ferrozine—Fe^2+ complex formation was calculated using the equation: Fe^2+ chelating effect (%) = [1 − (Abs1/Abs0)] × 100% where Abs0 is the absorbance of the sample without the tested compound and Abs1 is the absorbance in the presence of the compound tested. Each sample was made in triplicate, and three independent experiments were performed.

Consider `Cc1nccn1Cc1c[nH]c2ccccc12` [Compound 3, 3-((2-methyl-1H-imidazol-1-yl)methyl)-1H-indole], for which the melting point was in the range of 173 to 174 °C. The molecule further yielded a Hemolytic activity in data set [1] of 3.6%. In addition, in [2], the inhibition of growth at 0.0001 % is 15%, the inhibition of growth at 0.001 % stood at 19%, the inhibition of growth at 0.01 % stood at 44% and the inhibition of growth at 0.1 % is 100%. For the same molecule, in [3], the inhibition of growth at 0.0001 % turned out to be 0%, the inhibition of growth at 0.001 % amounted to 1%, the inhibition of growth at 0.01 % worked out at 35% and the inhibition of growth at 0.1 % worked out at 100%. Further, in [4], the inhibition of growth at 0.0001 % amounted to 0%, the inhibition of growth at 0.001 % came to 0%, the inhibition of growth at 0.01 % is 48% and the inhibition of growth at 0.1 % is 100%. In addition, in data set [5], the inhibition of growth at 0.0001 % came out at 0%, the inhibition of growth at 0.001 % turned out to be 0%, the inhibition of growth at 0.01 % was determined as 48% and the inhibition of growth at 0.1 % is 100%. The “Zone of Growth Inhibition” value in data set [6] was 3 mm. In data set [7], the “Zone of Growth Inhibition” value was 16 mm. Besides, the “Zone of Growth Inhibition” value in data set [8] came out at 1 mm. Moreover, the “Zone of Growth Inhibition” value in data set [9] was 1 mm.

The molecule `c1ccc2c(c1)ncn2Cc1c[nH]c2ccccc12` [Compound 9, 1-((1H-indol-3-yl)methyl)-1H-benzo[d]imidazole] had a melting point of 214 to 216 °C. The same molecule returned a Chelating activity in data set [10] of 4%. In data set [1], this molecule yielded a Hemolytic activity of 23%. In data set [2], the inhibition of growth at 0.0001 % is 17%, the inhibition of growth at 0.001 % was found to be 28%, the inhibition of growth at 0.01 % worked out at 48% and the inhibition of growth at 0.1 % came out at 100%. Moreover, in [3], the inhibition of growth at 0.0001 % is 0%, the inhibition of growth at 0.001 % is 6%, the inhibition of growth at 0.01 % turned out to be 44% and the inhibition of growth at 0.1 % came to 100%. Besides, in data set [4], the inhibition of growth at 0.0001 % was found to be 0%, the inhibition of growth at 0.001 % is 0%, the inhibition of growth at 0.01 % came to 40% and the inhibition of growth at 0.1 % turned out to be 100%. In data set [5], the inhibition of growth at 0.0001 % is 0%, the inhibition of growth at 0.001 % amounted to 23%, the inhibition of growth at 0.01 % is 37% and the inhibition of growth at 0.1 % came out at 100%. For the same molecule, the “Zone of Growth Inhibition” value in data set [6] is listed as 4.3 mm. In addition, in [7], the “Zone of Growth Inhibition” value worked out at 0 mm. Besides, in data set [8], the “Zone of Growth Inhibition” value is listed as 2.7 mm. Moreover, the “Zone of Growth Inhibition” value in data set [9] is given as 3 mm.
